biological target: T1, PLA2 (Homo sapiens, UniProt P14555); experiment: PLA2 Inhibition Assay (14C-oleate labeled E. coli membrane substrate); type: biochemical; settings: Table 2, Structure 14 (Type IA); 100 μM; enzyme isolated from human platelets
T1 construct: The enzyme is isolated from human platelets; from tissue; host or cells: human platelets
T1 sequence (P14555 21-144): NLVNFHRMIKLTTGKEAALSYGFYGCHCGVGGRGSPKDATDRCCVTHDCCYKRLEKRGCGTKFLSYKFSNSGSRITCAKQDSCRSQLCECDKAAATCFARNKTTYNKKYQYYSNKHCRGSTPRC
Procedure: The method used is similar to that reported by Franson, et al. [Jesse, R. L. and Franson R. C., Biochim. Biophys. Acta 575:467-470 (1979); Franson, R. C., Patriarca, P., and Elsback, P., J. Lipid Res. 15: 380-388 (1974)]. The enzyme is isolated from human platelets. The substrate used consists of ^14 C-oleate labeled Escherichia coli membranes. E. coli cells are grown in the presence of ^14 C-oleic acid and then autoclaved to prepare the membranes.
Various concentrations of test compounds are pre-incubated with PLA2 (3.6 μg/mL in a buffer consisting of 25 mM HEPES (pH 7)), 150 mM NaCl, 5.0 mM CaCl2, and 10% DMSO (v/v, test compound solvent) at 37° C. for 7 minutes. The E. coli membrane substrate is then added (0.1 mM phospholipid, 0.005 μCi ^14 C) and the reaction is then incubated at 37° C. for 30 minutes. The reaction is then terminated by the addition of 1.9 mL tetrahydrofuran (THF), and the entire solution is applied to a solid-phase extraction column (aminopropyl resin, Analytichem). The column is rinsed with an additional 1 mL of THF. The free fatty acid product of the reaction is then eluted from the column with 1 mL of 2% acetic acid in THF and collected in a scintillation vial. The amount of free fatty acid product is determined by liquid scintillation counting. The amount of inhibition produced by the test compound is calculated by comparing the counts obtained in the presence of the compound to those obtained in its absence (solvent only). Background counts were determined by performing incubations in the absence of enzyme.
Percent inhibition is determined by the equation: [formula]

Row | Structure (SMILES) | inhibition at 100 µM [%]
1 | CC(C)=CCC/C(C)=C/COc1ccc(/C=C(/C=C\C(=O)O)c2cccc(C(F)(F)F)c2)cc1 [Structure 14d] | 98
2 | CCCCCCCCCCOc1ccc(/C=C(/C=CC(=O)O)c2cccc(C(F)(F)F)c2)cc1OCCCCCCCCCC [Structure 14e, (2Z),(4Z)-4-(3-Trifluoromethylphenyl)-5-(3,4-bisdecyloxyphenyl)-2,4-pentadienoic acid/(2E),(4Z)-4-(3-Trifluoromethylphenyl)-5-(3,4-bisdecyloxyphenyl)-2,4-pentadienoic acid] | 99
3 | CC1(C)CCC(C)(C)c2cc3cc(/C=C(/C=C\C(=O)O)c4cccc(C(F)(F)F)c4)ccc3cc21 [Structure 14f, (2Z), (4Z)-4-(3-trifluoromethylphenyl)-5-(5,6,7,8-tetrahydro-5,5,8,8-tetramethyl-2-anthracenyl)-2,4-pentadienoic acid] | 71
4 | CC1(C)CCC(C)(C)c2cc(CC/C=C(/C=C\C(=O)O)c3cccc(C(F)(F)F)c3)ccc21 [Structure 14g, (2Z),(4Z)-4-(3-Trifluoromethylphenyl)-7-(5,6,7,8-tetrahydro-5,5,8,8-tetramethyl-2-naphthalenyl)-2,4-heptadienoic acid] | 96
5 | CC1(C)CCC(C)(C)c2cc(CC/C=C(/C=C\C(=O)O)c3ccc(F)cc3)ccc21 [Structure 14h, (2Z),(4Z)-4-(4-Fluorophenyl)-7-(5,6,7,8-tetrahydro-5,5,8,8-tetramethyl-2-naphthalenyl)-2,4-heptadienoic acid] | 96
6 | CC1(C)CCC(C)(C)c2cc(CC/C=C(/C=C\C(=O)O)c3cccc(F)c3)ccc21 [Structure 14i, (2Z),(4Z)-4-(3-Fluorophenyl)-7-(5,6,7,8-tetrahydro-5,5,8,8-tetramethyl-2-naphthalenyl)-2,4-heptadienoic acid] | 96
7 | CC1(C)CCC(C)(C)c2cc(CC/C=C(/C=C\C(=O)O)c3ccccc3)ccc21 [Structure 14j, (2Z),(4Z)-4-Phenyl-7-(5,6,7,8-tetrahydro-5,5,8,8-tetramethyl-2-naphthalenyl)-2,4-heptadienoic acid] | 92
8 | COc1ccc(CC/C=C(/C=C\C(=O)O)c2cccc(C(F)(F)F)c2)cc1C12CC3CC(CC(C3)C1)C2 [Structure 14k, (2Z),(4Z)-4-(3-Trifluoromethylphenyl)-7-[3-(1-adamantyl)-4-methoxyphenyl]-2,4-heptadienoic acid] | 99
9 | COc1ccc(CC/C=C(/C=C\C(=O)O)c2ccccc2)cc1C12CC3CC(CC(C3)C1)C2 [Structure 14l, (2Z),(4Z)-4-Phenyl-7-[3-(1-adamantyl)-4-methoxyphenyl]-2,4-heptadienoic acid] | 99
10 | COc1cc(CC/C=C(/C=C\C(=O)O)c2cccc(C(F)(F)F)c2)ccc1C12CC3CC(CC(C3)C1)C2 [Structure 14m, (2Z),(4Z)-4-(3-Trifluoromethylphenyl)-7-[4-(1-adamantyl)-3-methoxyphenyl]-2,4-heptadienoic acid] | 99
11 | COc1cc(CC/C=C(/C=C\C(=O)O)c2ccccc2)ccc1C12CC3CC(CC(C3)C1)C2 [Structure 14n, (2Z),(4Z)-4-Phenyl-7-[4-(1-adamantyl)-3-methoxyphenyl]-2,4-heptadienoicacid] | 100
12 | COc1ccc(CC/C=C(/C=C\C(=O)O)c2cccc(C(F)(F)F)c2)c(C23CC4CC(CC(C4)C2)C3)c1 [Structure 14o, (2Z),(4Z)-4-(3-Trifluoromethylphenyl)-7-[2-(1-adamantyl)-4-methoxyphenyl]-2,4-heptadienoic acid] | 99
13 | COc1cc(/C=C(/C=C\C(=O)O)c2cccc(C(F)(F)F)c2)ccc1C12CC3CC(CC(C3)C1)C2 [Structure 14p, (2Z),(4Z)-4-(3-Trifluoromethylphenyl)-5-[-4-(1-adamantyl)-3-methoxyphenyl]-2,4-pentadienoic acid] | 93
14 | O=C(O)/C=C\C(=C\CCc1ccc(C23CC4CC(CC(C4)C2)C3)c(O)c1)c1cccc(C(F)(F)F)c1 [Structure 14q, (2Z),(4Z)-4-(3-Trifluoromethylphenyl)-7-[4-(1-adamantyl)-3-hydroxyphenyl]-2,4-heptadienoic acid] | 100
15 | CCCCCOc1cc(CC/C=C(/C=C\C(=O)O)c2cccc(C(F)(F)F)c2)ccc1C12CC3CC(CC(C3)C1)C2 [Structure 14r, (2Z),(4Z)-4-(3-Trifluoromethylphenyl)-7-[4-(1-adamantyl)-3-pentyloxyphenyl]-2,4-heptadienoic acid] | 95
16 | O=C(O)/C=C\C(=C\CCc1ccc(C23CC4CC(CC(C4)C2)C3)c(OCc2cc(F)cc(F)c2)c1)c1cccc(C(F)(F)F)c1 [Structure 14s, (2Z),(4Z)-4-(3-Trifluoromethylphenyl)-7-[4-(1-adamantyl)-3-(3,5-difluorobenzyloxy)phenyl]-2,4-heptadienoic acid] | 100
17 | COc1ccc(COc2cc(CC/C=C(/C=C\C(=O)O)c3cccc(C(F)(F)F)c3)ccc2C23CC4CC(CC(C4)C2)C3)cc1 [Structure 14t, (2Z),(4Z)-4-(3-Trifluoromethylphenyl)-7-[4-(1-adamantyl)-3-(4-methoxybenzyloxy)phenyl]-2,4-heptadienoic acid] | 100
18 | O=C(O)/C=C\C(=C\CCc1ccc(C23CC4CC(CC(C4)C2)C3)c(OCc2ccccc2)c1)c1cccc(C(F)(F)F)c1 [Structure 14u, (2Z),(4Z)-4-(3-Trifluoromethylphenyl)-7-[4-(1-adamantyl)-3-benzyloxyphenyl]-2,4-heptadienoic acid] | 100
19 | O=C(O)/C=C\C(=C\CCc1ccc(C23CC4CC(CC(C4)C2)C3)c(OCC(=O)O)c1)c1cccc(C(F)(F)F)c1 [Structure 14v, (2Z),(4Z)-4-(3-Trifluoromethylphenyl)-7-[4-(1-adamantyl)-3-(carboxymethoxy)phenyl]-2,4-heptadienoic acid] | 100

same assay, conditions: Table 3, Structure 18 (Type IB); 100 μM; enzyme isolated from human platelets

Row | Structure (SMILES) | inhibition at 100 µM [%]
20 | CC1(C)CCC(C)(C)c2cc(/C=C(/C=C/C(=O)O)c3cccc(C(=O)O)c3)ccc21 [Structure 18a, (2E),(4Z)-4-(3-Carboxyphenyl)-5-(5,6,7,8-tetrahydro-5,5,8,8-tetramethyl-2-naphthalenyl)-2,4-pentadienoic acid] | 27
21 | CC1(C)CCC(C)(C)c2cc3cc(/C=C(/C=C/C(=O)O)c4cccc(C(=O)O)c4)ccc3cc21 [Structure 18b, (2E),(4Z)-4-(3-Carboxyphenyl)-5-(5,6,7,8-tetrahydro-5,5,8,8-tetramethyl-2-anthracenyl)-2,4-pentadienoic acid] | 100
22 | CCCCCOc1ccc(/C=C(/C=C/C(=O)O)c2cccc(C(=O)O)c2)cc1OCCCCC [Structure 18c, (2E),(4Z)-4-(3-Carboxyphenyl)-5-(3,4-bispentyloxyphenyl)-2,4-pentadienoic acid] | 70
23 | CCCCCCCCCCOc1ccc(/C=C(/C=C/C(=O)O)c2cccc(C(=O)O)c2)cc1OCCCCCCCCCC [Structure 18d, (2E),(4Z)-4-(3-Carboxyphenyl)-5-(3,4-bisdecyloxyphenyl)-2,4-pentadienoic a cid] | 91
24 | CC1(C)CCC(C)(C)c2cc(CC/C=C(/C=C/C(=O)O)c3cccc(C(=O)O)c3)ccc21 [Structure 18e, (2E),(4Z)-4-(3-Carboxyphenyl)-7-(5,6,7,8-tetrahydro-5,5,8,8-tetramethyl-2-naphthalenyl)-2,4-heptadienoic acid] | 55
